Source: US20040009904A1, “APL immunoreactive peptides, conjugates thereof and methods of treatment for aPL antibody-mediated pathologies” (priority 1995, published 2004)
Bridge positions count the residues as written; N and C are the ends. Square brackets hold non-standard residues; d marks the D form. Peptide text beside a SMILES is read from it. Phg = N[C@H](C(=O)O)c1ccccc1; Orn = NCCC[C@H](N)C(=O)O; Aib = CC(C)(N)C(=O)O

Molecular target: ACA-6501
Assay: Competitive binding peptide ACA ELISA, cardiolipin/β2-GPI-coated plates
Design: species or system human
Details: Optimization of Peptide 3G3; inf = no 50% inhibition
Protocol: A variation of this assay uses microtitration plates coated with human β2-glycoprotein I/cardiolipin (β2-GPI/CL) instead of tetravalent peptide and tests the ability of monomeric peptides to block the binding of aPL antibody to the epitope(s) on β2-GPI/CL. In this assay, IgG-depleted human serum at an optimized concentration is used as a source of β2-GPI. The monomeric peptides at several concentrations are incubated with an optimized concentration of aPL antibody in a manner analogous to the assay which employs tetravalent peptide as a plate substrate. Following the incubation of aPL/peptide in (β2-GPI/CL) plates, antibody binding and the peptide concentration required for 50% inhibition is determined at half-maximal absorbance as in the tetravalent assay.
Peptide sequences for all five peptides immediately follow the table. All were tested using the competitive binding peptide ACA ELISA using CL/β2-GPI plates as described herein.
(B) Immulon I® 96-well, flat-bottom, polystyrene microtitration plates (Dynatech Laboratories, Inc., Chantilly, Va.) were coated with 30 μL/well of cardiolipin (CL, 50 μg; Sigma Chemical Co., St. Louis, Mo.) in ethanol. Two control wells received 30 μL ethanol only. After overnight evaporation at 4° C., each well was blocked with 200 μL of 5% (w/v) fish gelatin in PBS for 2 hours at RT.
During this incubation, variable amounts of each of six peptides were mixed with 22 μL ACA-6501 serum diluted with 3% fish gelatin in 1:1 TBS/PBS (final dilution of 1:400) in a final volume of 220 μL using Eppendorf microcentrifuge tubes. Specifically, in tube #1 were mixed 181.3 μL of 3% fish gelatin in TBS-PBS, 16.7 μL of peptide stock solution plus 22 μL of ACA-6501 serum diluted 40 times in 3% fish gelatin/TBS-PBS. Stock solutions ranged from 450-800 μg/mL for peptides #951 (diserine non-cyclized negative control), #952 (a lot of LJP 690), and thioethers CCTE-3G3, CHTE-3G3, HCTE-3G3 and HHTE-3G3. To tube #2 the following were added: 148 μL fish gelatin/TBS-PBS, […] of peptide stock solution, plus 22 μL of 40 times diluted ACA-6501 serum. Tube #3 contained 48 μL fish gelatin/TBS-PBS, […] of peptide stock solution, plus 22 μL of 40 times diluted ACA-6501 serum. The control tube #4 received 396 μL fish gelatin/TBS-PBS and 44 μL of 40 times diluted ACA-6501 serum (no peptide). Each of the tubes incubated for approximately 1 hour at RT.
The CL/β2-GPI microtitration plate was washed 5 times with TBS and 100 μL aliquots in duplicate from Eppendorf tubes #1, 2, 3, and 4 containing the antibody-peptide (or no peptide mixtures) were added to the wells. A volume of 100 μL from tube #4 was added to the duplicate control wells containing no cardiolipin. The microtitration plate was incubated for 1 hour at RT with agitation at 40 rpm in an orbital shaker (American Scientific, Rotator V), washed 5 times with TBS and then 100 μL of 1:1000 goat anti-human IgG alkaline phosphatase conjugate (Zymed, Cat No. 62-8422) in 0.5% (w/v) BSA-TBS was added. Following incubation for 1 hour at RT, the microtitration plate was again washed 5 times with TBS and the colorimetric enzyme detection developed by adding 100 μL of PMPP solution (7.8 g phenolphthalein monophosphate plus 69.5 g of 2-amino-2-methyl-1-propanol in 100 mL water stock solution diluted 1:26 with water). After 21 minutes, the reaction was stopped by adding 50 μL of 0.2 M Na2HPO4 (Mallinckrodt) to each well. Absorbance at 550 nm was read in a microplate reader (Bio-Tek Instruments, Model EL 311). The amount of peptide that inhibited ACA-6501 binding by 50%, the IC50, was calculated from the graph at the intersection of half-maximal absorbance with amount of peptide added.

Row | Compound | with ACA 6501 150 ug/mL [µg/mL]
1 | CC(C)C[C@@H]1NC(=O)[C@H](CCCCN)NC(=O)CNC(=O)[C@H](CC(C)C)NC(=O)[C@H](C(C)C)NC(=O)CNC(=O)[C@@H](CC(C)C)NC(=O)[C@@H](N)CSSC[C@@H](C(=O)O)NC1=O [CdL G V L G K L C] (H-C[dL]GVLGKLC-OH; disulfide 1-9) | 180
2 | CC(C)C[C@@H]1NC(=O)[C@H](CCCCN)NC(=O)CNC(=O)[C@H](CC(C)C)NC(=O)[C@H](C(C)C)NC(=O)[C@H](C)NC(=O)[C@H](CC(C)C)NC(=O)[C@@H](N)CSSC[C@@H](C(=O)O)NC1=O [C L A V L G K L C] (H-CLAVLGKLC-OH; disulfide 1-9) | 170
3 | CC(C)C[C@@H]1NC(=O)[C@H](CCCCN)NC(=O)CNC(=O)[C@H](CC(C)C)NC(=O)[C@H](C(C)C)NC(=O)CNC(=O)[C@H](CC(C)C)NC(=O)[C@@H](N)CSSC[C@@H](C(=O)N2CCC[C@H]2C(=O)NCC(=O)O)NC1=O [C L G V L G K L C P G] (H-CLGVLGKLCPG-OH; disulfide 1-9) | 460
4 | CC(C)C[C@@H]1NC(=O)[C@H](CCCCN)NC(=O)CNC(=O)[C@H](CC(C)C)NC(=O)[C@H](c2ccccc2)NC(=O)CNC(=O)[C@H](CC(C)C)NC(=O)[C@@H](N)CSSC[C@@H](C(=O)O)NC1=O [C L G pG L G K L C] (H-CLG[Phg]LGKLC-OH; disulfide 1-9) | 70
5 | CC(C)C[C@@H]1NC(=O)[C@H](CCCCN)NC(=O)C(C)(C)NC(=O)[C@H](CC(C)C)NC(=O)[C@H](C(C)C)NC(=O)CNC(=O)[C@H](CC(C)C)NC(=O)[C@@H](N)CSSC[C@@H](C(=O)O)NC1=O [C L G V L aiB K L C] (H-CLGVL[Aib]KLC-OH; disulfide 1-9) | 110
6 | CC(C)C[C@@H]1NC(=O)[C@H](C(C)C)NC(=O)CNC(=O)[C@H](CC(C)C)NC(=O)[C@@H](N)CSSC[C@@H](C(=O)O)NC(=O)[C@H](CC(C)C)NC(=O)[C@@H](CCCCN)NC(=O)CNC1=O [C L G V L G dK L C] (H-CLGVLG[dK]LC-OH; disulfide 1-9) | 170
7 | CC(C)C[C@@H]1NC(=O)[C@H](CCCCN)NC(=O)CNC(=O)[C@H](CC(C)C)NC(=O)C(C)(C)NC(=O)CNC(=O)[C@H](CC(C)C)NC(=O)[C@@H](N)CSSC[C@@H](C(=O)O)NC1=O [C L G aiB L G K L C] (H-CLG[Aib]LGKLC-OH; disulfide 1-9) | 110
8 | CC(C)C[C@@H]1NC(=O)[C@H](CCCCN)NC(=O)CNC(=O)[C@H](CC(C)C)NC(=O)[C@@H](C(C)C)NC(=O)CNC(=O)[C@H](CC(C)C)NC(=O)[C@@H](N)CSSC[C@@H](C(=O)O)NC1=O [C L G dV L G K L C] (H-CLG[dV]LGKLC-OH; disulfide 1-9) | 260
9 | CC(C)C[C@@H]1NC(=O)[C@H](C(C)C)NC(=O)CNC(=O)[C@H](CC(C)C)NC(=O)[C@@H](N)CSSC[C@@H](C(=O)O)NC(=O)[C@@H](CC(C)C)NC(=O)[C@H](CCCCN)NC(=O)CNC1=O [C L G V L G K dL C] (H-CLGVLGK[dL]C-OH; disulfide 1-9) | 140
10 | C L G V L G K L C ATU-Y (CLGVLGKLC; C-terminal ATU-Y extension) | 300
11 | CC(C)C[C@@H]1NC(=O)[C@H](CCCN)NC(=O)CNC(=O)[C@H](CC(C)C)NC(=O)[C@H](C(C)C)NC(=O)CNC(=O)[C@H](CC(C)C)NC(=O)[C@@H](N)CSSC[C@@H](C(=O)O)NC1=O [C L G V L G Or L C] (H-CLGVLG[Orn]LC-OH; disulfide 1-9) | 40
12 | CC[C@H](C)[C@@H]1NC(=O)[C@@H](N)CSSC[C@@H](C(=O)O)NC(=O)[C@H](CC(C)C)NC(=O)[C@H](CCCCN)NC(=O)CNC(=O)[C@H](CC(C)C)NC(=O)[C@H](C(C)C)NC(=O)CNC1=O [C I G V L G K L C] (H-CIGVLGKLC-OH; disulfide 1-9) | 60
